# Test results reported in patent US20060112494A1, “Method of protecting an animal skin product from metalloproteinase activity” (priority 2004, published 2006).
# Where two headings read alike, the source gives them in different places.
# How the values were obtained:
# [1] = system: mixed bacteria on fresh hide samples; set-up: Growth/Days 2 / Growth/Days 4: key to the marks not given beside the values; details: for Growth/Days 1: day 1; for Growth/Days 2: day 2; for Growth/Days 4: day 4;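 for all read-outs here: fresh hide pieces laid on inhibitor-containing nutrient agar supplemented with 0.5% Azocoll, incubated at 30 °C, then scored for growth of bacteria originating from the hide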
# collagenase = details: for Collagenase Activity/Days 1: day 1; for Collagenase Activity/Days 2: day 2; for Collagenase Activity/Days 4: day 4; for Collagenase Activity/Days 7: day 7;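 for all read-outs here: nutrient agar containing 0.5% Azocoll with inhibitor, topped by a fresh hide piece, kept at 30 °C, collagenase from hide bacteria scored visually as clearing zone around growth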
# Method: Nutrient agar amended with 0.5% AZOCOLL was used as the test medium to study collagenase activity. The nutrient agar was prepared and autoclaved and then was cooled to 55° C. Azocol was added to give a final concentration of 0.5%. […] Fresh hides were obtained from a tannery and were cut into pieces of approximately 2 cm square. One 2×2 cm hide sample was placed on top of the agar containing the inhibitors. Treated samples were incubated at 30° C. and evaluated after 24 hours, 2 days, 3 or 4 days and 7 days for collagenase activity and also for the growth of the bacteria. The bacteria from the hides secreted collagenase into the medium as they grew to degrade the collagen in the azocoll medium and collagenase activity was determined by visual inspection of the clear zone around the bacteria
structure (smiles),measurement,setting,value
"O=C([O-])CN(CCN(CC(=O)O)CC(=O)O)CC(=O)[O-].[Na+].[Na+] [Na2EDTA, ethylenediaminetetraacetic acid disodium salt]",Growth/Days 1,[1]; Conc. 0.025%,++++
same,Growth/Days 2,[1]; Conc. 0.025%,++++
same,Growth/Days 4,[1]; Conc. 0.025%,++++
same,Growth/Days 1,[1]; Conc. 0.05%,++++
same,Growth/Days 2,[1]; Conc. 0.05%,++++
same,Growth/Days 4,[1]; Conc. 0.05%,++++
same,Growth/Days 1,[1]; Conc. 0.075%,++++
same,Growth/Days 2,[1]; Conc. 0.075%,++++
same,Growth/Days 4,[1]; Conc. 0.075%,++++
same,Growth/Days 1,[1]; Conc. 0.1%,++
same,Growth/Days 2,[1]; Conc. 0.1%,++++
same,Growth/Days 4,[1]; Conc. 0.1%,++++
same,Growth/Days 1,[1]; Conc. 0.2%,0
same,Growth/Days 2,[1]; Conc. 0.2%,+++
same,Growth/Days 4,[1]; Conc. 0.2%,++++
same,Growth/Days 1,[1]; Conc. 0.3%,0
same,Growth/Days 2,[1]; Conc. 0.3%,+++
same,Growth/Days 4,[1]; Conc. 0.3%,++++
same,Growth/Days 1,[1]; Conc. 0.4%,0
same,Growth/Days 2,[1]; Conc. 0.4%,+++
same,Growth/Days 4,[1]; Conc. 0.4%,++++
same,Growth/Days 1,[1]; Conc. 0.5%,0
same,Growth/Days 2,[1]; Conc. 0.5%,+++
same,Growth/Days 4,[1]; Conc. 0.5%,++++
same,Collagenase Activity/Days 1,collagenase; Conc. 0.025%,++++
same,Collagenase Activity/Days 2,collagenase; Conc. 0.025%,++++
same,Collagenase Activity/Days 4,collagenase; Conc. 0.025%,++++
same,Collagenase Activity/Days 7,collagenase; Conc. 0.025%,++++
same,Collagenase Activity/Days 1,collagenase; Conc. 0.05%,0
same,Collagenase Activity/Days 2,collagenase; Conc. 0.05%,+++
same,Collagenase Activity/Days 4,collagenase; Conc. 0.05%,++++
same,Collagenase Activity/Days 7,collagenase; Conc. 0.05%,++++
same,Collagenase Activity/Days 1,collagenase; Conc. 0.075%,+
same,Collagenase Activity/Days 2,collagenase; Conc. 0.075%,+++
same,Collagenase Activity/Days 4,collagenase; Conc. 0.075%,++++
same,Collagenase Activity/Days 7,collagenase; Conc. 0.075%,++++
same,Collagenase Activity/Days 1,collagenase; Conc. 0.1%,0
same,Collagenase Activity/Days 2,collagenase; Conc. 0.1%,+
same,Collagenase Activity/Days 4,collagenase; Conc. 0.1%,+++
same,Collagenase Activity/Days 7,collagenase; Conc. 0.1%,+++
same,Collagenase Activity/Days 1,collagenase; Conc. 0.2%,0
same,Collagenase Activity/Days 2,collagenase; Conc. 0.2%,0
same,Collagenase Activity/Days 4,collagenase; Conc. 0.2%,0
same,Collagenase Activity/Days 7,collagenase; Conc. 0.2%,+
same,Collagenase Activity/Days 1,collagenase; Conc. 0.3%,0
same,Collagenase Activity/Days 2,collagenase; Conc. 0.3%,0
same,Collagenase Activity/Days 4,collagenase; Conc. 0.3%,0
same,Collagenase Activity/Days 7,collagenase; Conc. 0.3%,+
same,Collagenase Activity/Days 1,collagenase; Conc. 0.4%,0
same,Collagenase Activity/Days 2,collagenase; Conc. 0.4%,0
same,Collagenase Activity/Days 4,collagenase; Conc. 0.4%,0
same,Collagenase Activity/Days 7,collagenase; Conc. 0.4%,0
same,Collagenase Activity/Days 1,collagenase; Conc. 0.5%,0
same,Collagenase Activity/Days 2,collagenase; Conc. 0.5%,0
same,Collagenase Activity/Days 4,collagenase; Conc. 0.5%,0
same,Collagenase Activity/Days 7,collagenase; Conc. 0.5%,0
"O=C([O-])CN(CCN(CC(=O)[O-])CC(=O)O)CC(=O)[O-].[Na+].[Na+].[Na+] [Na3EDTA, ethylenediaminetetraacetic acid trisodium salt]",Growth/Days 1,[1]; Conc. 0.025%,++++
same,Growth/Days 2,[1]; Conc. 0.025%,++++
same,Growth/Days 4,[1]; Conc. 0.025%,++++
same,Growth/Days 1,[1]; Conc. 0.05%,++++
same,Growth/Days 2,[1]; Conc. 0.05%,++++
same,Growth/Days 4,[1]; Conc. 0.05%,++++
same,Growth/Days 1,[1]; Conc. 0.075%,++++
same,Growth/Days 2,[1]; Conc. 0.075%,++++
same,Growth/Days 4,[1]; Conc. 0.075%,++++
same,Growth/Days 1,[1]; Conc. 0.1%,++++
same,Growth/Days 2,[1]; Conc. 0.1%,++++
same,Growth/Days 4,[1]; Conc. 0.1%,++++
same,Growth/Days 1,[1]; Conc. 0.2%,++++
same,Growth/Days 2,[1]; Conc. 0.2%,++++
same,Growth/Days 4,[1]; Conc. 0.2%,++++
same,Growth/Days 1,[1]; Conc. 0.3%,+++
same,Growth/Days 2,[1]; Conc. 0.3%,+++
same,Growth/Days 4,[1]; Conc. 0.3%,+++
same,Growth/Days 1,[1]; Conc. 0.4%,++++
same,Growth/Days 2,[1]; Conc. 0.4%,++++
same,Growth/Days 4,[1]; Conc. 0.4%,++++
same,Growth/Days 1,[1]; Conc. 0.5%,++
same,Growth/Days 2,[1]; Conc. 0.5%,++++
same,Growth/Days 4,[1]; Conc. 0.5%,++++
same,Collagenase Activity/Days 1,collagenase; Conc. 0.025%,++++
same,Collagenase Activity/Days 2,collagenase; Conc. 0.025%,++++
same,Collagenase Activity/Days 4,collagenase; Conc. 0.025%,++++
same,Collagenase Activity/Days 7,collagenase; Conc. 0.025%,++++
same,Collagenase Activity/Days 1,collagenase; Conc. 0.05%,++
same,Collagenase Activity/Days 2,collagenase; Conc. 0.05%,+++
same,Collagenase Activity/Days 4,collagenase; Conc. 0.05%,++++
same,Collagenase Activity/Days 7,collagenase; Conc. 0.05%,++++
same,Collagenase Activity/Days 1,collagenase; Conc. 0.075%,0
same,Collagenase Activity/Days 2,collagenase; Conc. 0.075%,+
same,Collagenase Activity/Days 4,collagenase; Conc. 0.075%,+++
same,Collagenase Activity/Days 7,collagenase; Conc. 0.075%,++++
same,Collagenase Activity/Days 1,collagenase; Conc. 0.1%,0
same,Collagenase Activity/Days 2,collagenase; Conc. 0.1%,+
same,Collagenase Activity/Days 4,collagenase; Conc. 0.1%,+++
same,Collagenase Activity/Days 7,collagenase; Conc. 0.1%,+++
same,Collagenase Activity/Days 1,collagenase; Conc. 0.2%,0
same,Collagenase Activity/Days 2,collagenase; Conc. 0.2%,0
same,Collagenase Activity/Days 4,collagenase; Conc. 0.2%,++
same,Collagenase Activity/Days 7,collagenase; Conc. 0.2%,+++
same,Collagenase Activity/Days 1,collagenase; Conc. 0.3%,0
same,Collagenase Activity/Days 2,collagenase; Conc. 0.3%,0
same,Collagenase Activity/Days 4,collagenase; Conc. 0.3%,+
same,Collagenase Activity/Days 7,collagenase; Conc. 0.3%,++
same,Collagenase Activity/Days 1,collagenase; Conc. 0.4%,0
same,Collagenase Activity/Days 2,collagenase; Conc. 0.4%,0
same,Collagenase Activity/Days 4,collagenase; Conc. 0.4%,0
same,Collagenase Activity/Days 7,collagenase; Conc. 0.4%,+
same,Collagenase Activity/Days 1,collagenase; Conc. 0.5%,0
same,Collagenase Activity/Days 2,collagenase; Conc. 0.5%,0
same,Collagenase Activity/Days 4,collagenase; Conc. 0.5%,0
same,Collagenase Activity/Days 7,collagenase; Conc. 0.5%,+
"O=C([O-])CN(CCN(CC(=O)[O-])CC(=O)[O-])CC(=O)[O-].[Na+].[Na+].[Na+].[Na+] [Na4EDTA, ethylenediaminetetraacetic acid tetrasodium salt]",Growth/Days 1,[1]; Conc. 0.025%,++++
same,Growth/Days 2,[1]; Conc. 0.025%,++++
same,Growth/Days 4,[1]; Conc. 0.025%,++++
same,Growth/Days 1,[1]; Conc. 0.05%,++++
same,Growth/Days 2,[1]; Conc. 0.05%,++++
same,Growth/Days 4,[1]; Conc. 0.05%,++++
same,Growth/Days 1,[1]; Conc. 0.075%,++++
same,Growth/Days 2,[1]; Conc. 0.075%,++++
same,Growth/Days 4,[1]; Conc. 0.075%,++++
same,Growth/Days 1,[1]; Conc. 0.1%,++++
same,Growth/Days 2,[1]; Conc. 0.1%,++++
same,Growth/Days 4,[1]; Conc. 0.1%,++++
same,Growth/Days 1,[1]; Conc. 0.2%,++++
same,Growth/Days 2,[1]; Conc. 0.2%,++++
same,Growth/Days 4,[1]; Conc. 0.2%,++++
same,Growth/Days 1,[1]; Conc. 0.3%,++++
same,Growth/Days 2,[1]; Conc. 0.3%,++++
same,Growth/Days 4,[1]; Conc. 0.3%,++++
same,Growth/Days 1,[1]; Conc. 0.4%,++++
same,Growth/Days 2,[1]; Conc. 0.4%,++++
same,Growth/Days 4,[1]; Conc. 0.4%,++++
same,Growth/Days 1,[1]; Conc. 0.5%,++++
same,Growth/Days 2,[1]; Conc. 0.5%,++++
same,Growth/Days 4,[1]; Conc. 0.5%,++++
same,Collagenase Activity/Days 1,collagenase; Conc. 0.025%,++++
same,Collagenase Activity/Days 2,collagenase; Conc. 0.025%,++++
same,Collagenase Activity/Days 4,collagenase; Conc. 0.025%,++++
same,Collagenase Activity/Days 7,collagenase; Conc. 0.025%,++++
same,Collagenase Activity/Days 1,collagenase; Conc. 0.05%,++++
same,Collagenase Activity/Days 2,collagenase; Conc. 0.05%,++++
same,Collagenase Activity/Days 4,collagenase; Conc. 0.05%,++++
same,Collagenase Activity/Days 7,collagenase; Conc. 0.05%,++++
same,Collagenase Activity/Days 1,collagenase; Conc. 0.075%,+
same,Collagenase Activity/Days 2,collagenase; Conc. 0.075%,++
same,Collagenase Activity/Days 4,collagenase; Conc. 0.075%,+++
same,Collagenase Activity/Days 7,collagenase; Conc. 0.075%,++++
same,Collagenase Activity/Days 1,collagenase; Conc. 0.1%,0
same,Collagenase Activity/Days 2,collagenase; Conc. 0.1%,+
same,Collagenase Activity/Days 4,collagenase; Conc. 0.1%,++
same,Collagenase Activity/Days 7,collagenase; Conc. 0.1%,+++
same,Collagenase Activity/Days 1,collagenase; Conc. 0.2%,0
same,Collagenase Activity/Days 2,collagenase; Conc. 0.2%,+
same,Collagenase Activity/Days 4,collagenase; Conc. 0.2%,++
same,Collagenase Activity/Days 7,collagenase; Conc. 0.2%,+++
same,Collagenase Activity/Days 1,collagenase; Conc. 0.3%,0
same,Collagenase Activity/Days 2,collagenase; Conc. 0.3%,+
same,Collagenase Activity/Days 4,collagenase; Conc. 0.3%,+
same,Collagenase Activity/Days 7,collagenase; Conc. 0.3%,+++
same,Collagenase Activity/Days 1,collagenase; Conc. 0.4%,0
same,Collagenase Activity/Days 2,collagenase; Conc. 0.4%,+
same,Collagenase Activity/Days 4,collagenase; Conc. 0.4%,+
same,Collagenase Activity/Days 7,collagenase; Conc. 0.4%,+++
same,Collagenase Activity/Days 1,collagenase; Conc. 0.5%,0
same,Collagenase Activity/Days 2,collagenase; Conc. 0.5%,0
same,Collagenase Activity/Days 7,collagenase; Conc. 0.5%,++
